Experiments:
Format in all cases: biochemical
[1] = target: methamidophos-inhibited hAChE (Homo sapiens, UniProt P22303)
human AChE = human AChE (Homo sapiens, UniProt P22303)
[2] = target: fenamiphos-inhibited hAChE (Homo sapiens, UniProt P22303)
[3] = target: T1, human butyrylcholinesterase (hBChE) (Homo sapiens, UniProt P06276); assay: Progressive inhibition of hBChE by organophosphorus pesticides (Ellman method); conditions: for kinact/KI: read-out: ki, overall second-order rate constant of inhibition (converted)
T1 construct: hBChE derived from purified human plasma; from tissue; host or cells: human plasma

[4] = target: T2, human acetylcholinesterase (hAChE) (Homo sapiens, UniProt P22303); assay: Progressive inhibition of hAChE by organophosphorus pesticides (Ellman method); conditions: 25 °C, ± SEM; for kinact/KI: read-out: ki, overall second-order rate constant of inhibition (converted)
T2 construct: made in house
T2 sequence (P22303 32-614): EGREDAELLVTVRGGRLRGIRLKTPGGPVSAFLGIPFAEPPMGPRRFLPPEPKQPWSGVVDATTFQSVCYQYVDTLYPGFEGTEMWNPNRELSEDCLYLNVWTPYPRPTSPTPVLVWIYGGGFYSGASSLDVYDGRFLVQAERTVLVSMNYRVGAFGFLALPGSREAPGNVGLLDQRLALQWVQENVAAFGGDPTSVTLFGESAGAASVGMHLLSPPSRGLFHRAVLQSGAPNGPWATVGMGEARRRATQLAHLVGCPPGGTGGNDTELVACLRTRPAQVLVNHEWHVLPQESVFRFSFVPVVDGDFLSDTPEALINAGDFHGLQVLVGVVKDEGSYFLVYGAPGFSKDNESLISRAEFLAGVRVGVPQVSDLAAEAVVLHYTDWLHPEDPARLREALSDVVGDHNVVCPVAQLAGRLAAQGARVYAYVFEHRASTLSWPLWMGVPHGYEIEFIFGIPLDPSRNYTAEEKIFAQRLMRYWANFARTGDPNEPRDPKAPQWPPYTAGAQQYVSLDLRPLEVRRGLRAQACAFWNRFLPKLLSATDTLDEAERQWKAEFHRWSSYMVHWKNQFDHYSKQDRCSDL

T1 sequence (P06276 29-602): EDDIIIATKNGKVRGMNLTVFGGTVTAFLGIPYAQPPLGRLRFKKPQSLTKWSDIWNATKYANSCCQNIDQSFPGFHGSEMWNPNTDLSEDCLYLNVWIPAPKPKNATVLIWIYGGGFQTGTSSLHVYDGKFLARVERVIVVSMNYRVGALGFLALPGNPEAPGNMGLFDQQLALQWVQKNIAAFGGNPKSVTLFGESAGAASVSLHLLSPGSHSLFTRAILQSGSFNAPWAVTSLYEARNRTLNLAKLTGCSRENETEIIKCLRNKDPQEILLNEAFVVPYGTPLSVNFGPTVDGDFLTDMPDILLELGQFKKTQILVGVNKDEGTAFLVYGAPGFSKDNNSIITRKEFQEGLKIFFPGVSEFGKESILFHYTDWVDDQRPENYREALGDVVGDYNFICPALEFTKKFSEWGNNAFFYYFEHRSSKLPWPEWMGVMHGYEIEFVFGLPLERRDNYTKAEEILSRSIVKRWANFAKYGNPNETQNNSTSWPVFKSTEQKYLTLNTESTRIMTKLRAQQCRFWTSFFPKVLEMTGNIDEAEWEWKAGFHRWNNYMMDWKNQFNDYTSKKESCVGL
fenamiphos-inhibited hAChE, sequence (P22303 32-614): as the sequence (P22303 32-614) above
methamidophos-inhibited hAChE, sequence (P22303 32-614): as above
human AChE, sequence (P22303 32-614): as above

Structure (SMILES) | Reactmax (screening) [1] | Reactmax, maximal percentage of reactivation [1] | k2, maximal first-order reactivation rate constant [1] | kobs, observed reactivation rate (screening) [1] | kr, overall second-order reactivation rate constant [1] | t, time to achieve maximum of reactivation (screening) [1] | Inhibition of AChE with oxime (human AChE) | Reactmax (screening) [2] | Reactmax, maximal percentage of reactivation [2] | k2, maximal first-order reactivation rate constant [2] | kobs, observed reactivation rate (screening) [2] | kr, overall second-order reactivation rate constant [2] | t, time to achieve maximum of reactivation (screening) [2] | kmax, first-order inhibition constant ([3]; hBChE, 25 °C, ± SEM) | other results
C[n+]1ccccc1C=NO [Oxime 2-PAM] | 86% | 80% | 2.7 ± 0.2 min⁻¹ | 1.1558 min -1 | 42,190 ± 2,547 min^−1 M^−1 | 0.36 h | 11% | 46% | 70% | 0.003 ± 0.0002 min⁻¹ | 0.0011 min -1 | 0.125 ± 0.025 M⁻¹ s⁻¹ | 20 h | – | –
ON=Cc1cc[n+](CCn2cc(C[n+]3ccccc3C=NO)nn2)cc1 [Oxime 14A] | 68% | 85% | 22.2 ± 3.8 min⁻¹ | 6.7944 min -1 | 108,300 ± 17,090 min^−1 M^−1 | 0.08 h | 10% | 42% | 45% | 0.069 ± 0.034 min⁻¹ | 0.0062 min -1 | 1.43 ± 0.413 M⁻¹ s⁻¹ | 3 h | – | –
CCOP(=O)(NC(C)C)Oc1ccc(SC)c(C)c1 (stereo not shown) [Fenamiphos, fenamiphos] | – | – | – | – | – | – | – | – | – | – | – | – | – | 0.16 ± 0.01 min⁻¹ | ki, overall second-order rate constant of inhibition ([3]; hBChE, 25 °C, ± SEM): 35,890 ± 8,484 min^-1 M^-1; ki, overall second-order rate constant of inhibition [4]: 3,982 ± 264 min^-1 M^-1; kmax, first-order inhibition constant [4]: 0.21 ± 0.01 min⁻¹
COP(N)(=O)SC (stereo not shown) [Methamidophos, methamidophos] | – | – | – | – | – | – | – | – | – | – | – | – | – | – | ki lower than that of fenamiphos ([3]; hBChE): 90 fold; kinact/KI ([3]; hBChE, 25 °C, ± SEM): 6.43 M⁻¹ s⁻¹; kinact/KI [4]: 46 M⁻¹ s⁻¹
ON=Cc1cc[n+](CCC[n+]2ccc(C=NO)cc2)cc1 [TMB-4] | 83% | 80% | 16.5 ± 6.6 min⁻¹ | 4.2338 min -1 | 116,600 ± 12,380 min^−1 M^−1 | 0.16 h | 8% | 49% | 65% | 0.082 ± 0.010 min⁻¹ | 0.0177 min -1 | 2.237 ± 0.293 M⁻¹ s⁻¹ | 1 h | – | –
CCCSP(=O)(OCC)SCCC [Ethoprophos, ethoprophos] | – | – | – | – | – | – | – | – | – | – | – | – | – | 0.58 ± 0.05 min⁻¹ | Ki [3]: 36.4 ± 6.68 µM
CCOP(=S)(OCC)SCn1c(=O)oc2cc(Cl)ccc21 [Phosalone, phosalone] | – | – | – | – | – | – | – | – | – | – | – | – | – | 0.23 ± 0.02 min⁻¹ | Ki [3]: 97.9 ± 15.3 µM; kinact/KI ([3]; hBChE, 25 °C, ± SEM): 38.9 M⁻¹ s⁻¹; kinact/KI [4]: 35.5 M⁻¹ s⁻¹

— publication PMC8563940 (Scientific Reports, 2021)
